# Key:
# [1] = tested on: entorhinal cortex of aMCI subjects; test: fMRI activity in entorhinal cortex (EC) during successful memory judgments; format: in vivo, human; details: levetiracetam 125 mg twice a day for two weeks vs placebo
# [2] = tested on: aMCI subjects; test: explicit 3-alternative forced choice task (lure images); format: in vivo, human
# Text: See Folstein et al., J Psychiatric Res 12: 189-98, (1975); Robbins et al., Dementia 5: 266-81, (1994); Rey, L'examen clinique en psychologie, (1964); Kluger et al., J Geriatr Psychiatry Neurol 12:168-79, (1999); Marquis et al., 2002 and Masur et al., 1994, or MATRICS consensus neuropsychological test battery which includes tests of working memory, speed of processing, attention, verbal learning, visual learning, reasoning and problem solving and social cognition. Another example of a cognitive test in humans is the explicit 3-alternative forced choice task. In this test, subjects are presented with color photographs of common objects consisting of a mix of three types of image pairs: similar pairs, identical pairs and unrelated foils. The second of the pair of similar objects is referred to as the “lure”. These image pairs are fully randomized and present individually as a series of images. Subjects are instructed to make a judgment as to whether the objects seen are new, old or similar. A “similar” response to the presentation of a lure stimulus indicates successful memory retrieval by the subject.
# The activity of the subject's medial temporal lobe is measured by functional MRI during the subject's participation in an explicit 3-alternative forced choice task, where participants view novel, repeated and similar (“lure”) stimuli. The Psychophysics Toolbox extensions in Matlab 7.0 (The MathWorks, Natick, Mass.) is used for stimulus presentation and behavioral data collection. Stimuli are color photographs of common objects. Each participant undergoes a series of testing runs during the functional imaging sessions, each run consisting of a mix of three types of image pairs: similar pairs, identical pairs and unrelated foils. These image pairs are fully randomized throughout the run and present individually as a series of images (see FIG. 6A). […]
# The activity of the subject's medial temporal lobe is measured by functional MRI during the subject's participation in an explicit 3-alternative forced choice task, where participants view novel, repeated and similar (“lure”) stimuli. […]
# [3] = tested on: sematostatin in DG hilus; test: somatostatin in DG hilus after four weeks of osmotic minipump treatment (Example 5); format: in vivo, rat; details: levetiracetam 10 mg/kg/day in osmotic minipumps for four weeks, aged-impaired rats
# [4] = tested on: somatostatin in DG hilus; test: Somatostatin (SOM) immunohistochemistry, hilar interneuron counts in aged-impaired rats; format: in vivo, rat; details: 10 mg/kg/day, four-week treatment, AI-LEV vs AI-VEH p<0.01, AI-LEV vs Y p=0.679
# Text: Tissue was labeled with anti-SOM antiserum (Santa Cruz Biotechnology; cat. no. SC7819-P) using an established immunoperoxidase protocol and tissue sections were processed concurrently to minimize inter-replication variability (Haberman et al., 2009). The anti-SOM antiserum can detect somatostatin. Briefly, sections were washed in 0.1M phosphate-buffered saline (PBS) to remove cryoprotectant, and endogenous peroxidases were quenched in 0.3% H202 in PBS. After additional PBS washes, sections were blocked in 5% normal horse serum in PBS with 0.3% Triton. Sections were then incubated with primary antibody at a dilution of 1:1600 in PBS containing 0.15% Triton and 3% normal serum for 72 hours at 4° C. with agitation. […] The secondary antibody was detected with avidin-biotin complex (ABC Elite; Vector Laboratories Inc., Burlingame, Calif.) and the avidin-biotin complex was visualized with nickel-enhanced diaminobenzadine (Vector Laboratories Inc., Burlingame, Calif.). […]
# Interneuron quantification was performed using a Zeiss Axioplan 2 microscope equipped with a motorized stage. […] Neuron counts were analyzed as the total number of hilar interneurons per hippocampal section for each rat.
# [5] = cited from earlier work
smiles,measurement,setting,value
"CC[C@@H](C(N)=O)N1CCCC1=O [levetiracetam, (2S)-2-(2-oxopyrrolidin-1-yl) butanamide]",EC activity during memory judgments,[1],normalizes activity
same,performance of aMCI subjects in the memory task (similar vs old responses to lures),"[2]; levetiracetam 62.5 mg BID for two weeks vs placebo, p=0.041",improves significantly
same,performance of aMCI subjects in the memory task (similar vs old responses to lures),"[2]; levetiracetam 125 mg twice a day for two weeks vs placebo, p=0.039",improves significantly
same,performance of aMCI subjects in the memory task (similar vs old responses to lures),"[2]; levetiracetam 250 mg BID for two weeks vs placebo, p=0.2396",does not significantly improve
same,somatostatin in DG hilus,[3],restores sematostatin in DG hilus
same,levels of somatostatin in DG hilus (number of SOM-immunoreactive hilar neurons),[4],restores the levels of somatostatin
same,plasma half-life expected in elderly,"[5]; elderly, decreased renal function",9 to 10 h
same,absorption,"[5]; in vivo, po",rapidly and almost completely absorbed
same,time of peak plasma concentrations,"[5]; in vivo, po",about 1 hour
same,plasma half-life,[5]; in vivo,approximately 7±1 hour
same,time to steady state,[5]; in vivo,2 days
same,effect of food on bioavailability,[5]; oral,not affected by food

# Reference: US11160785B2, “Methods and compositions for improving cognitive function” (AgeneBio, Inc., priority 2013, dated 2021)
